One data set concerns Mtb in J774 cells. In words: Mtb growth in J774 macrophage-like cells (mKO fluorescence). The data set is classed as cell-based, Mycobacterium tuberculosis. The gist of the method:
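J774 cells infected with log-phase mKO-expressing Mtb (OD600=0.2 suspension), compounds dosed from 20 μM final in two-fold dilutions to 0.039 μM, or single 10 μM in 96-well format; 37° C., 5% CO2, 6 days. mKO fluorescence read, growth expressed as percent of DMSO control.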

Data set [1] in a line: Mouse liver microsomal stability. It counts as in vitro ADME. The settings on record: mouse liver microsomes.
Protocol: (§1) Assays examining mouse and human liver microsomal stability, kinetic aqueous solubility, mouse and human plasma protein binding and stability, and human cytochrome P450 inhibition characteristics of the compounds were run by BioDuro, Incorporated, using standard protocols as previously described (Wang et al, 2020). hERG inhibition assays were also performed by BioDuro, Incorporated.
Data set [2] in a line: Human liver microsomal stability. It counts as in vitro ADME.
Data set [3] is described as follows: Mouse pharmacokinetics, single oral dose. The data set is classed as in vivo, CD-1 mice. On the procedure: Blood samples were collected in K2EDTA coated tubes pre-dose, 0.5, 1, 3 and 5 hrs post-dose, placed on ice, and centrifuged to recover plasma. The recovered plasma was kept at −80° C. as needed prior to analysis, which was performed as previously described (Wang et al, 2020). In brief, a Sciex Applied Biosystems Qtrap 4000 triple-quadrupole mass spectrometer coupled to an Agilent 1260 HPLC system was used for HPLC coupled to tandem mass spectrometry (LC-MS/MS) quantitative analysis of the samples, with chromatography attained using an Agilent Zorbax SB-C8 column (2.1×30 mm; particle size, 3.5 μm) and a reverse phase gradient elution. The aqueous mobile phase consisted of Milli-Q deionized water with 0.1% formic acid (A), while the organic mobile phase was 0.1% formic acid in acetonitrile (B). The gradient set-up was as follows: 5-90% B over 2 mins, 1 min at 90% B, then an immediate drop to 5% B and an additional 1 min at 5% B. Quantification of molecules was carried out via multiple-reaction monitoring of parent/daughter transitions in electrospray positive-ionization mode, and sample analyses accepted if quality control and standard samples had concentrations within 20% of the nominal concentration. Preparation of compounds for generation of standard curves and quality control spiking solutions were performed as previously described (Wang et al, 2020). Data were processed using Analyst software (Version 1.6.2; Applied Biosystems Sciex).

The nature of data set [4]: Human plasma protein binding. It counts as in vitro ADME.
Protocol: as §1
A short description of another data set: Mouse plasma stability. It counts as in vitro ADME. The settings on record: after 5 h incubation.
In another data set the target is human CYP 450 2C9 (Homo sapiens, UniProt P11712). In words: Human cytochrome P450 inhibition, 2C9. It counts as in vitro ADME. The settings on record: 10 μM.
Data set [5] relates to Mtb. In words: Mtb growth assay in cholesterol media (OD600). It counts as cell-based, Mycobacterium tuberculosis.
Data set [6] deals with Mtb. Kind of data set: Mtb growth assay in standard 7H9 media (OD600). The settings on record: 10 μM.
Description: Bacterial growth was tracked by measuring OD600 every 3 days for 12 days. […] Bacterial growth was tracked by measurement of D600 every 3 days over 12 days.
A further data set concerns Mtb-infected J774 cells. The settings on record: 10 μM for 24 h; 5 days post-infection.

The structures appear in SMILES notation.

This is an account of results in US20240300934A1, “COMPOUNDS FOR MODULATING MYCOBACTERIUM TUBERCULOSIS RESPONSE” (priority 2021, published 2024).

Sequence of human CYP 450 2C9 (P11712 whole entry): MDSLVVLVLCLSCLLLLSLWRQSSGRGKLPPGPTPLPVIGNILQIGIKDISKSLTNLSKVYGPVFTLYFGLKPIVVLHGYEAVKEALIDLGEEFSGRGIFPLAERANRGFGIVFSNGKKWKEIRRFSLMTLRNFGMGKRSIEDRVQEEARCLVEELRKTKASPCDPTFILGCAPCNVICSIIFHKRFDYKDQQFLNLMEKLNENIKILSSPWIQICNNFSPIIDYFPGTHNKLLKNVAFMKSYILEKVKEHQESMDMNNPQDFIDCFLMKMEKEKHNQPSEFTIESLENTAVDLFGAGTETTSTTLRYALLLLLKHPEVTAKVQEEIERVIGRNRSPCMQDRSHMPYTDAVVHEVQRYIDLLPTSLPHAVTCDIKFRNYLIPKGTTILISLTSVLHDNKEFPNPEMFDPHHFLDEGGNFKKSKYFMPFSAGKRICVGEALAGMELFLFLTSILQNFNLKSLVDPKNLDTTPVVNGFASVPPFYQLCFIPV
Protocol for Mouse plasma stability: as §1

`CCSc1ncc(CN2CCN(c3nc4ccccc4o3)CC2)cn1` [Compound C6, 2-(4-((2-(ethylthio)pyrimidin-5-yl)methyl)piperazin-1-yl)benzo[d]oxazole]: in the data set with Mtb in J774 cells (10 μM compound, J774.1 cells), the “% Reduction of Intracellular Infection (J774.1 cells) at 10 μM cmpd” value is 54.2 ± 2.6%. In the data set on Mtb in J774 cells (10 μM, 6 days post-infection), the “Mtb growth in J774 cells (in words)” value was “Mtb growth inhibition”. For the same molecule, the inhibition at 10 µM with Mtb in J774 cells (Mycobacterium tuberculosis, J774CELLS, J774, 144 h, read-out: % inhibition compared to Rif in J774 at 10 μM) was found to be 40.5 ± 0.6%. For the same molecule, the inhibition at 20 µM in the data set with Mtb in J774 cells (Mycobacterium tuberculosis, J774CELLS, J774, 144 h, read-out: % inhibition compared to Rif in J774 at 20 μM) came out at 53.6 ± 2.7%. The “Inhibition of Mtb growth in J774 cells phenotype” value with Mtb in J774 cells (compared to C6) is “Y”. Also, the “MLM t1/2” value in [1] amounted to 48.5 min. Moreover, the “t1/2 in human liver microsomes” value in data set [2] is 37.6 min. Further, the Kp at 5 h in [3] (female, CD-1, mouse, single 25 mg/kg po dose, 5 h, lung vs plasma, read-out: Mouse PK Clung/Cplasma at t = 5 h) was found to be 0.88. Besides, the AUC0-5 h in data set [3] (single 5 mg/kg oral (po) dose, plasma, CD-1 mice (n=2)) came out at 5481 ng·h/mL. The “Mouse PK AUC0-5h” value in data set [3] (single 25 mg/kg po dose, plasma, CD-1 mice) came out at 25713 ng·h/mL. Moreover, in data set [4], the “protein binding to human plasma” value turned out to be 99.2%. Moreover, the “stability in mouse plasma, % remaining” value in the data set “Mouse plasma stability” is given as greater than 99.9%. In addition, the “% inhibition of CYP 2C9” value on human CYP 450 2C9 stood at 25.7%. Further, in the data set with Mtb [5] (10 μM, 4 mM acetate or 200 μM stearate), the “effect of even chain fatty acids on growth inhibition in cholesterol media” value is “rescue inhibition”. Further, the “Mtb growth in cholesterol media (in words)” value in the data set with Mtb [5] (10 μM, OD600) is given as “inhibited Mtb growth in cholesterol media”. The “effect of odd chain fatty acids on growth inhibition in cholesterol media” value in the data set with Mtb [5] (10 μM, additional odd chain carbon source) is recorded as “do not rescue inhibition”. Besides, the “effect of vitamin B12 on growth inhibition in cholesterol media” value in the data set with Mtb [5] (10 μM, vitamin B12 added) is “does not rescue inhibition”. In addition, in the data set with Mtb [5] (compared to C6), the “Growth inhibition in cholesterol media phenotype” value is “Y”. Besides, the “Mtb growth in standard 7H9 media” value in the data set with Mtb [6] is listed as “no effect”. Further, the “accumulation in Mtb-infected J774 cells” value in the data set on Mtb-infected J774 cells is on record as “trend of greater C6 accumulation in the Mtb-infected J774 cells than uninfected J774 cells”.
